According to patent publication US20240415914A1, “Water Dispersible Cannabinoid Compositions” (priority 2021, published 2024):

Experiment: Stability of cannabinoid and Vitamin E components of Beverage 1 (AB White) stored at 8° C. and 21-25° C., LCMSMS over 570 days
Type: physicochemical
Conditions: for Stability in AB White, 8° C. (content by LCMSMS): beverage stored at 8° C.; for Stability in AB White, 21-25° C. (content by LCMSMS): beverage stored at 21-25° C.
Protocol: The LCMSMS was calibrated for 0-1000 ng/ml cannabinoids with the same resin material used in the preparation of the concentrates. At each time period, 100 ml of beverage was diluted with 10 ml of methanol and injected into the LCMSMS for analysis.

## CCCCCc1cc2c(c(O)c1C(=O)O)[C@@H]1C=C(C)CC[C@H]1C(C)(C)O2 [D9 THCA, delta-9-tetrahydrocannabinolic acid]
Day 0
  Stability in AB White, 8° C. (content by LCMSMS): 0.950 µg/mL
  Stability in AB White, 21-25° C. (content by LCMSMS): 0.950 µg/mL
Day 1
  Stability in AB White, 8° C. (content by LCMSMS): 0.956 µg/mL
  Stability in AB White, 21-25° C. (content by LCMSMS): 0.960 µg/mL
Day 2
  Stability in AB White, 8° C. (content by LCMSMS): 0.954 µg/mL
  Stability in AB White, 21-25° C. (content by LCMSMS): 0.938 µg/mL
Day 3
  Stability in AB White, 8° C. (content by LCMSMS): 0.934 µg/mL
  Stability in AB White, 21-25° C. (content by LCMSMS): 0.920 µg/mL
Day 5
  Stability in AB White, 8° C. (content by LCMSMS): 0.956 µg/mL
  Stability in AB White, 21-25° C. (content by LCMSMS): 0.958 µg/mL
Day 8
  Stability in AB White, 8° C. (content by LCMSMS): 0.949 µg/mL
  Stability in AB White, 21-25° C. (content by LCMSMS): 0.937 µg/mL
Day 9
  Stability in AB White, 8° C. (content by LCMSMS): 0.937 µg/mL
  Stability in AB White, 21-25° C. (content by LCMSMS): 0.926 µg/mL
Day 10
  Stability in AB White, 8° C. (content by LCMSMS): 0.960 µg/mL
  Stability in AB White, 21-25° C. (content by LCMSMS): 0.935 µg/mL
Day 11
  Stability in AB White, 8° C. (content by LCMSMS): 0.929 µg/mL
  Stability in AB White, 21-25° C. (content by LCMSMS): 0.949 µg/mL
Day 12
  Stability in AB White, 8° C. (content by LCMSMS): 0.942 µg/mL
  Stability in AB White, 21-25° C. (content by LCMSMS): 0.935 µg/mL
Day 15
  Stability in AB White, 8° C. (content by LCMSMS): 0.944 µg/mL
  Stability in AB White, 21-25° C. (content by LCMSMS): 0.948 µg/mL
Day 16
  Stability in AB White, 8° C. (content by LCMSMS): 0.932 µg/mL
  Stability in AB White, 21-25° C. (content by LCMSMS): 0.921 µg/mL
Day 17
  Stability in AB White, 8° C. (content by LCMSMS): 0.951 µg/mL
  Stability in AB White, 21-25° C. (content by LCMSMS): 0.919 µg/mL
Day 18
  Stability in AB White, 8° C. (content by LCMSMS): 0.950 µg/mL
  Stability in AB White, 21-25° C. (content by LCMSMS): 0.928 µg/mL
Day 19
  Stability in AB White, 8° C. (content by LCMSMS): 0.959 µg/mL
  Stability in AB White, 21-25° C. (content by LCMSMS): 0.917 µg/mL
Day 22
  Stability in AB White, 8° C. (content by LCMSMS): 0.960 µg/mL
  Stability in AB White, 21-25° C. (content by LCMSMS): 0.947 µg/mL
Day 23
  Stability in AB White, 8° C. (content by LCMSMS): 0.931 µg/mL
  Stability in AB White, 21-25° C. (content by LCMSMS): 0.924 µg/mL
Day 24
  Stability in AB White, 8° C. (content by LCMSMS): 0.926 µg/mL
  Stability in AB White, 21-25° C. (content by LCMSMS): 0.927 µg/mL
Day 25
  Stability in AB White, 8° C. (content by LCMSMS): 0.957 µg/mL
  Stability in AB White, 21-25° C. (content by LCMSMS): 0.948 µg/mL
Day 26
  Stability in AB White, 8° C. (content by LCMSMS): 0.956 µg/mL
  Stability in AB White, 21-25° C. (content by LCMSMS): 0.921 µg/mL
Day 29
  Stability in AB White, 8° C. (content by LCMSMS): 0.939 µg/mL
  Stability in AB White, 21-25° C. (content by LCMSMS): 0.922 µg/mL
Day 30
  Stability in AB White, 8° C. (content by LCMSMS): 0.955 µg/mL
  Stability in AB White, 21-25° C. (content by LCMSMS): 0.934 µg/mL
Day 60
  Stability in AB White, 8° C. (content by LCMSMS): 0.914 µg/mL
  Stability in AB White, 21-25° C. (content by LCMSMS): 0.896 µg/mL
Day 90
  Stability in AB White, 8° C. (content by LCMSMS): 0.948 µg/mL
  Stability in AB White, 21-25° C. (content by LCMSMS): 0.892 µg/mL
Day 120
  Stability in AB White, 8° C. (content by LCMSMS): 0.932 µg/mL
  Stability in AB White, 21-25° C. (content by LCMSMS): 0.894 µg/mL
Day 150
  Stability in AB White, 8° C. (content by LCMSMS): 0.952 µg/mL
  Stability in AB White, 21-25° C. (content by LCMSMS): 0.934 µg/mL
Day 180
  Stability in AB White, 8° C. (content by LCMSMS): 0.941 µg/mL
  Stability in AB White, 21-25° C. (content by LCMSMS): 0.945 µg/mL
Day 210
  Stability in AB White, 8° C. (content by LCMSMS): 0.923 µg/mL
  Stability in AB White, 21-25° C. (content by LCMSMS): 0.913 µg/mL
Day 240
  Stability in AB White, 8° C. (content by LCMSMS): 0.932 µg/mL
  Stability in AB White, 21-25° C. (content by LCMSMS): 0.892 µg/mL
Day 270
  Stability in AB White, 8° C. (content by LCMSMS): 0.933 µg/mL
  Stability in AB White, 21-25° C. (content by LCMSMS): 0.905 µg/mL
Day 300
  Stability in AB White, 8° C. (content by LCMSMS): 0.939 µg/mL
  Stability in AB White, 21-25° C. (content by LCMSMS): 0.888 µg/mL
Day 330
  Stability in AB White, 8° C. (content by LCMSMS): 0.909 µg/mL
  Stability in AB White, 21-25° C. (content by LCMSMS): 0.894 µg/mL
Day 360
  Stability in AB White, 8° C. (content by LCMSMS): 0.913 µg/mL
  Stability in AB White, 21-25° C. (content by LCMSMS): 0.925 µg/mL
Day 390
  Stability in AB White, 8° C. (content by LCMSMS): 0.923 µg/mL
  Stability in AB White, 21-25° C. (content by LCMSMS): 0.907 µg/mL
Day 420
  Stability in AB White, 8° C. (content by LCMSMS): 0.916 µg/mL
  Stability in AB White, 21-25° C. (content by LCMSMS): 0.909 µg/mL
Day 450
  Stability in AB White, 8° C. (content by LCMSMS): 0.923 µg/mL
  Stability in AB White, 21-25° C. (content by LCMSMS): 0.921 µg/mL
Day 480
  Stability in AB White, 8° C. (content by LCMSMS): 0.905 µg/mL
  Stability in AB White, 21-25° C. (content by LCMSMS): 0.873 µg/mL
Day 510
  Stability in AB White, 8° C. (content by LCMSMS): 0.873 µg/mL
  Stability in AB White, 21-25° C. (content by LCMSMS): 0.903 µg/mL
Day 540
  Stability in AB White, 8° C. (content by LCMSMS): 0.877 µg/mL
  Stability in AB White, 21-25° C. (content by LCMSMS): 0.877 µg/mL
Day 570
  Stability in AB White, 8° C. (content by LCMSMS): 0.872 µg/mL
  Stability in AB White, 21-25° C. (content by LCMSMS): 0.877 µg/mL
